Data on six compounds can be found in patent publication US20260209196A1, “AMIDINOUREA DERIVATIVES AND THEIR USE IN THE TREATMENT OF CANCER” (UNIVERSITE COTE D'AZUR, priority 2022, published 2026).

What all share (type): cell-based
One series deals with A375. Briefly: Cell viability of A375 melanoma cells by Trypan Blue exclusion. Conditions: for viability at 5 µM / viability at 10 µM: Homo sapiens, A-375, viable cells as mean percentage of control cells ± SEM, N=3. The procedure:
The BRAFV600E mutant melanoma line A375 (CRL-1619) was purchased from ATCC (Manassas, VA, USA). The A375 were maintained in glutamine-containing DMEM supplemented with 10% heat-inactivated fetal bovine serum, penicillin (100 units/ml) and streptomycin ([…]).
(§1) Cell viability was measured by the Trypan Blue exclusion method. Briefly, cells washed with PBS were harvested by a 3-minute incubation in 0.05% trypsin before neutralization with serum containing medium. An aliquot of the cell suspension was then mixed 1:1 with a 0.4% Trypan blue solution and viable cells were counted within 5 minutes on Kova slides under an optical microscope. Results are expressed as the mean percentage of control cells±SEM. N=3

The test system of the next series is NCI 60 cell panel. The series is described as follows: DTP-NCI assay (NCI 60 cell screen, single high dose). Particulars: Homo sapiens, 48 h; single high dose 10^-5 M, full NCI 60 cell panel; growth relative to no-drug control and to time zero number of cells; read-out: DTP-NCI (mean of the percent growth of treated cells). Here is the method:
The effect of 10 μM of MTF504 was monitored on a panel 60 cell lines representing nine distinct tumour types: leukemia, colon, lung, central nervous system, renal, melanoma, ovarian, breast and prostate. Briefly, the compound was sent to the US National Cancer Institute where its antineoplastic effects were monitored on the panel of cell lines after 48 hours of treatment following a standardized protocol.
All compounds submitted to the NCI 60 Cell screen are tested initially at a single high dose (10^-5 M) in the full NCI 60 cell panel. The results are reported as a mean of the percent growth of treated cells. The number reported is growth relative to the no-drug control, and relative to the time zero number of cells. This allows detection of […].

A further series relates to normal human melanocytes. The series is described as follows: Toxicity on normal human melanocytes by Trypan blue counting. Particulars: FIG. 3. Here is the method:
Normal human melanocytes were obtained from the foreskins of Caucasian children and grown in MCDB 153 medium supplemented with 2% fetal calf serum, 0.5 mg/ml hydrocortisone, 5 mg/ml insulin, 16 nM phorbol-12 myristate 13-acetate, 1 ng/ml basic fibroblast growth factor, 20 mg/ml bovine pituitary extract, […], and penicillin/streptomycin (100 U/ml/[…]). All cells were maintained in humidified incubators at 37° C. with 5% CO2.
as §1

Where [1] appears, read: 24 h, read-out: Viab A375 5 μM/24 h.
Where [2] appears, read: 48 h, read-out: Viab A375 5 μM/48 h.
The mark [3] stands for this setting: 24 h, read-out: Viab A375 10 μM/24 h.
[4] abbreviates: 48 h, read-out: Viab A375 10 μM/48 h.

Where two headings read alike, the source gives them in different places.

In the case of `N=C(NC(=O)Nc1ccccc1Cl)Nc1nc2ccccc2s1` [MTF504, N-benzo[d]thiazol-2-yl-N″-(2-chloroaniline-carbonyl)-guanidine], the results for the viability at 5 µM with A375 (setting [1]) and in the series on A375 (setting [2]) were 26% and 7.1%, respectively. Further, in the series with A375 (after 24 hours of treatment, FIG. 5), the “decrease of melanoma cell viability versus CRO15 and MTF319” value is given as “more efficient than previously reported compounds”. Moreover, in the series on NCI 60 cell panel, the activity at 10 µM came out at 25.4%. Besides, the “toxicity on normal human melanocytes” value with normal human melanocytes was “absence of toxicity”.

Regarding `N=C(NC(=O)Nc1ccccc1)Nc1nc2ccccc2s1` [MTF314, N—(N-(benzo[d]thiazol-2-yl)carbamimidoyl)-anilinocarboxamide], the viability at 5 µM with A375 (setting [1]) was found to be 53.5%; with A375 (setting [2]) it was 12.3%. Also, the viability at 10 µM is 32.7% in the series with A375 (setting [3]) and 7.6% with A375 (setting [4]). Further, the activity at 10 µM in the series with NCI 60 cell panel came to 37.4%.

Regarding `Cc1ccccc1NC(=O)NC(=N)Nc1nc2ccccc2s1` [MTF495, N-benzo[d]thiazol-2-yl-N″-(2-methylaniline-carbonyl)-guanidine], the viability at 5 µM in the series on A375 (setting [1]) came to 38.6%; in the series on A375 (setting [2]), 8%. Further, the activity at 10 µM in the series on NCI 60 cell panel came out at 25.9%.

Turning to `Cc1cccc(NC(=O)NC(=N)Nc2nc(C)c(C)s2)c1` [MTF510, 4,5-dimethylthiazol-2-yl-N″-(3-methylaniline-carbonyl)-guanidine], the viability at 5 µM with A375 (setting [1]) amounted to 56.5%; in the series with A375 (setting [2]), 26.1%. Moreover, in the series with NCI 60 cell panel, the activity at 10 µM stood at 47.2%.

On to `N=C(NC(=O)Nc1cccc(Cl)c1)Nc1nc2ccccc2s1` [MTF415, N-benzo[d]thiazol-2-yl-N″-(3-chloroaniline-carbonyl)-guanidine], for which the viability at 5 µM in the series on A375 (setting [1]) was 93.5%; in the series with A375 (setting [2]), 32.9%. Further, the viability at 10 µM in the series on A375 (setting [3]) came to 58.3%; in the series with A375 (setting [4]), 19.9%. For the same compound, in the series on NCI 60 cell panel, the activity at 10 µM was found to be 35.4%.

As for `Cc1nc(NC(=N)NC(=O)Nc2ccccc2)sc1C` [MTF496, 4,5-dimethylthiazol-2-yl-N″-(aniline-carbonyl)-guanidine], the viability at 5 µM was 67.7% with A375 (setting [1]) and 56.6% in the series on A375 (setting [2]). Also, the activity at 10 µM in the series with NCI 60 cell panel was found to be 83.8%.
